Measured values: BigSolDB 2.1

CC(C)C(=O)Nc1ccc([N+](=O)[O-])c(C(F)(F)F)c1
solubility (mole fraction)
Details	278.15 K	283.15 K	288.15 K	293.15 K	298.15 K	303.15 K	308.15 K	313.15 K	318.15 K	323.15 K
in 2-ethoxyethanol	0.132	0.142	0.153	0.164	0.176	0.19	0.204	0.22	0.237	0.258
in 2-methoxyethanol	0.121	0.13	0.142	0.153	0.166	0.18	0.195	0.212	0.229	0.25
in DMF	0.382	0.391	0.401	0.41	0.421	0.433	0.447	0.462	0.476	0.494
in DMSO	–	–	–	0.433	0.443	0.455	0.469	0.481	0.496	0.512
in acetone	0.162	0.173	0.185	0.196	0.209	0.223	0.238	0.255	0.273	0.293
in dichloromethane	0.00732	0.00924	0.0117	0.0143	0.0182	0.0223	0.0273	–	–	–
in ethanol	0.0336	0.0406	0.0503	0.0586	0.0699	0.083	0.0979	0.116	0.135	0.158
in ethyl acetate	0.0998	0.109	0.119	0.131	0.143	0.156	0.17	0.187	0.205	0.225
in ethylene glycol	0.00089	0.00116	0.0015	0.00195	0.00241	0.00308	0.0039	0.00491	0.0061	0.00758
in methanol	0.0296	0.0362	0.0446	0.0532	0.065	0.078	0.0933	0.11	0.131	0.153
in methyl acetate	0.0945	0.103	0.113	0.123	0.135	0.144	0.16	0.175	0.192	0.21
